Laboratory results from ChEMBL document CHEMBL1148709, “Derivatives of (-)-7-methyl-2-(5-(pyridinyl)pyridin-3-yl)-7-azabicyclo[2.2.1]heptane are potential ligands for positron emission tomography imaging of extrathalamic nicotinic acetylcholine receptors” (J Med Chem, 2007).
Calls of active or inactive are those of the source. The rule behind the calls is not given here.

Legend:
Mus musculus [1] = experiment: Induction of fast breathing in CD1 mouse at 2 umol/kg; assay type: functional, organism-based
Mus musculus [2] = experiment: Induction of straub tail in CD1 mouse at 2 umol/kg; assay type: functional, organism-based
Mus musculus [3] = experiment: Toxicity assessed as induction of death in CD1 mouse at 2 umol/kg; assay type: organism-based; settings: in vivo
[4] = Ratio of drug level in thalamus to cerebellum in Wistar rat after 90 mins; assay type: ADME, tissue-based; settings: in vivo, 1.5 h
physchem = settings: octanol/water, pH 7.4
Description: Distribution coefficient, log D at pH 7.4 by shake-flask method

[5] = Ratio of drug level in thalamus to cerebellum in baboon after 180 mins; assay type: ADME, tissue-based; settings: papio hamadryas, in vivo, 3 h
[6] = Ratio of drug level in pans to cerebellum in baboon after 180 mins; assay type: ADME, tissue-based; settings: papio hamadryas, in vivo, 3 h
[7] = Ratio of drug level in frontal cortex to cerebellum in baboon after 180 mins; assay type: ADME, tissue-based; settings: papio hamadryas, in vivo, 3 h

CN1[C@@H]2CC[C@@H]1[C@@H](c1cncc(-c3ccc(F)nc3)c1)C2 (stereo in doubt; (-)-24d) [listing 1 of 2 here]
Activity (Mus musculus [1]): Active | Activity (Mus musculus [2]): Active

CN1[C@@H]2CC[C@@H]1[C@@H](c1cncc(-c3ccc(F)nc3)c1)C2 (stereo in doubt; (-)-24d) [listing 2 of 2 here]
Activity (Mus musculus [3]): Non-toxic

[11CH3]N1[C@@H]2CC[C@@H]1[C@@H](c1cnc(Cl)c(-c3ccnc(F)c3)c1)C2
Ratio [4]: 6.5

CN1[C@@H]2CC[C@@H]1[C@@H](c1cncc(-c3ccc(F)nc3)c1)C2 (racemic)
logD (physchem): 0.45

CN1[C@@H]2CC[C@@H]1[C@@H](c1cnc(Cl)c(-c3ccnc(F)c3)c1)C2 (racemic)
logD (physchem): 1.26

[11CH3]N1[C@@H]2CC[C@@H]1[C@@H](c1cnc(Cl)c(-c3ccnc(F)c3)c1)C2 (racemic)
Ratio [4]: 2.2

Fc1ccc(-c2cc([C@H]3C[C@H]4CC[C@H]3N4)cnc2Cl)cn1 (racemic)
logD (physchem): 0.68

CN1[C@@H]2CC[C@@H]1[C@@H](c1cnc(Cl)c(-c3ccc(F)nc3)c1)C2 (single isomer, unassigned)
logD (physchem): 1.42

CN1[C@@H]2CC[C@@H]1[C@@H](c1cnc(F)c(-c3ccc(C#N)nc3)c1)C2 (racemic)
logD (physchem): 0.64

CN1[C@@H]2CC[C@@H]1[C@@H](c1cncc(-c3ccc([18F])nc3)c1)C2
Ratio [5]: 6 | Ratio [6]: 2.4 | Ratio [7]: 2.4

CN1[C@@H]2CC[C@@H]1[C@@H](c1cnc(F)c(-c3ccc(F)nc3)c1)C2 (racemic)
logD (physchem): 0.96
